We go through 5 compounds from article PMC11267547, “Advancing drug discovery through assay development: a survey of tool compounds within the human solute carrier superfamily” (Frontiers in Pharmacology, 2024).

One assay addresses SLC2A9 (Homo sapiens, UniProt Q9NRM0). The assay is described as follows: Membrane potential dye-based assay, HEK293 cells stably expressing isoform-1 or -2 of SLC2A9 vs mock. Format: cell-based. To be noted: SLC2A9 isoform-1 or -2 cells compared with non-transduced (mock) cells. The method, then: FLIPR Membrane Potential Blue Dye was used to detect the compound activities for those membrane transporters that are electrogenic or whose activity is associated with changes in membrane potential, as previously described ([Jensen and BräunerOsborne, 2004]). In brief, cells are seeded at cell line-specific density in black clear-bottom poly-D-Lysine-coated 384-well plates (Greiner Bio-One) in DMEM high-glucose medium with 10% FBS, 1% P/S, and 2 mM UltraGlutamine I (25 µL/well). Furthermore, 24 h after seeding, the culture medium is removed, and the cells are loaded with 20 µL/well of 0.5 X FMP Blue Dye in assay buffer (modified Tyrode’s buffer, 130 mM NaCl, 5 mM KCl, 1 mM MgCl2, 2 mM CaCl2, 5 mM NaHCO3, and 20 mM HEPES pH 7.4). The plates are subsequently incubated for at least 30 min at room temperature in the dark. Then, 10 µL/well of test compounds and controls is added at defined concentrations (0.5% DMSO final conc.) in the FLIPR TETRA instrument (Molecular Devices), and emitted fluorescence is recorded using a λexc 510–545-nm/λem 565–625-nm filter. The dose–response curves for the 19 compounds were prepared starting from 3 µM (final top concentration), the half-log serial dilution factor. For data analysis, Genedata Screener 19.0 software was used.

The test system of another assay is SLC28A2 (CNT2). The assay is described as follows: Impedance-based TRACT assay, HEK293–JumpIn–SLC28A2 cells, adenosine response. Format: cell-based, human. To be noted: 31.6 µM pretreatment, non-induced (-dox) cells.
The target in a further assay is T1, ENT1 (SLC29A1) (Homo sapiens, UniProt Q99808).
T1 construct: from tissue; host or cells: human erythrocyte membranes
Put plainly: Displacement assay with [3H]NBTI on human erythrocyte membranes. It counts as binding. To be noted: [3H]NBTI displacement on erythrocyte membranes and TRACT assay (Figure 1E, Supplementary Figure S1). As to the method:
Displacement assay with [3H]NBTI on human erythrocyte membranes expressing ENT1 (SLC29A1) was performed at 25°C, as described previously ([Vlachodimou et al., 2020]).

A further assay deals with T2, SLC1A5 (Homo sapiens, UniProt Q15758).
T2 construct: host or cells: HEK293 expressing AspSnFR, transiently transfected with gpASNase1
Put plainly: AspSnFR biosensor assay, asparagine uptake in HEK293 cells. It counts as cell-based. The conditions noted are these: cells pretreated with 50 µM. The method, then: HEK293 cells expressing AspSnFR were transiently transfected with EBPF-gpASNase1, trypsinized, and resuspended in 10% dialyzed FCS/PBS. Post-treatment with test compounds or vehicle, varying concentrations of asparagine were added. After a 30-min incubation at room temperature, flow cytometry analysis was performed using the BD LSR Fortessa X-20, following the protocol previously described ([Hellweg et al., 2024]).

In another assay the test system is all SLCs. Put plainly: Selectivity entropy score against all SLCs (S_SLCs). The arrangement: species or system human. The conditions noted are these: selectivity entropy score for all activity values against SLCs. As to the method: (§1) To assess the selectivity, a selectivity entropy score ([Uitdehaag and Zaman, 2011]) was implemented in KNIME. The entropy score was calculated twice for each compound, first against all SLCs (S_SLCs) and then against all proteins (S_other). Ideally, a low entropy value indicates a high selectivity of the inhibitor. However, as the inhibitors were not tested on a full panel of targets, but often only against one to three proteins, a low entropy value might not reflect its true selectivity. Therefore, Pareto ranking was performed using the corresponding node from the Erlwood KNIME open-source cheminformatics KNIME community extension. This ranking minimizes S_SLCs and S_other while maximizing the activity value and the count of SLCs the inhibitor was tested on.

The test system of assay [1] is all proteins (SLCs and non-SLCs). Put plainly: Selectivity entropy score against all proteins (S_other). The arrangement: species or system human. As to the method:
as §1

The next assay concerns MPC2. Also noted: method as in GtoPdb 3023, PubMed 35278701. To be noted: negative logarithm of the Molar value of IC50, Ki, EC50, and Kd values; ref GtoPdb 3023, PubMed 35278701; cited from earlier work.
The subject of another assay is PDE5A. Also noted: method as in ChEMBL. The conditions noted are these: negative logarithm of the Molar value; ref ChEMBL; cited from earlier work.
The test system of the next assay is GPR35. Also noted: method as in ChEMBL. The conditions noted are these: negative logarithm of the Molar value; ref ChEMBL; cited from earlier work.
For the next assay, the system named is PDE1C. Also noted: method as in ChEMBL. The conditions noted are these: negative logarithm of the Molar value; ref ChEMBL; cited from earlier work.
The test system of a further assay is PDE10A. Also noted: method as in ChEMBL. To be noted: negative logarithm of the Molar value; ref ChEMBL; cited from earlier work.

T2 sequence (Q15758 whole entry): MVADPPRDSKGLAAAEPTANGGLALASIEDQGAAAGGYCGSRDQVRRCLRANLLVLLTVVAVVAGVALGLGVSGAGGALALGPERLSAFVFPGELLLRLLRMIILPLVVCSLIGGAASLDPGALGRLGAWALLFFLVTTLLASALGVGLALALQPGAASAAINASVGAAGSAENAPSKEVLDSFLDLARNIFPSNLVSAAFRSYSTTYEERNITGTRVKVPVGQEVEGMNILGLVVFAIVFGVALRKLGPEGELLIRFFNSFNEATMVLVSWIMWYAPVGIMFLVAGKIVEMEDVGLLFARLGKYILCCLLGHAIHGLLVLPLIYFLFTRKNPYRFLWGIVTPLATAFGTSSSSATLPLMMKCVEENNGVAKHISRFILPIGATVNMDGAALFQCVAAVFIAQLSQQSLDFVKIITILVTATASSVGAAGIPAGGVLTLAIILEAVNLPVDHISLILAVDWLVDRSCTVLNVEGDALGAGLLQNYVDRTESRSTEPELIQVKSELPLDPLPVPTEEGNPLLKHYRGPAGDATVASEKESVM
T1 sequence (Q99808 whole entry): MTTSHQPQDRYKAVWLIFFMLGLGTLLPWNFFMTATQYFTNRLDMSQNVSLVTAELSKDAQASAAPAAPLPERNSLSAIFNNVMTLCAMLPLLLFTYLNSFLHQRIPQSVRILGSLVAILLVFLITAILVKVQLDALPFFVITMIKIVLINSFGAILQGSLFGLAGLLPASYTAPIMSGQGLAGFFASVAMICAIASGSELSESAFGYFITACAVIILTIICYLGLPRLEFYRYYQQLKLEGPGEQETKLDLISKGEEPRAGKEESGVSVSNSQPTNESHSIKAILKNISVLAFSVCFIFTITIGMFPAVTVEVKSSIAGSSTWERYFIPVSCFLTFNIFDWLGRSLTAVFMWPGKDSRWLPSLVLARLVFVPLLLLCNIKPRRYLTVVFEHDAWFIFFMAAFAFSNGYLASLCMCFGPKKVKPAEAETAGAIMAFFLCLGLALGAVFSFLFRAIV
Sequence of SLC2A9 (Q9NRM0 51-540 limits assumed): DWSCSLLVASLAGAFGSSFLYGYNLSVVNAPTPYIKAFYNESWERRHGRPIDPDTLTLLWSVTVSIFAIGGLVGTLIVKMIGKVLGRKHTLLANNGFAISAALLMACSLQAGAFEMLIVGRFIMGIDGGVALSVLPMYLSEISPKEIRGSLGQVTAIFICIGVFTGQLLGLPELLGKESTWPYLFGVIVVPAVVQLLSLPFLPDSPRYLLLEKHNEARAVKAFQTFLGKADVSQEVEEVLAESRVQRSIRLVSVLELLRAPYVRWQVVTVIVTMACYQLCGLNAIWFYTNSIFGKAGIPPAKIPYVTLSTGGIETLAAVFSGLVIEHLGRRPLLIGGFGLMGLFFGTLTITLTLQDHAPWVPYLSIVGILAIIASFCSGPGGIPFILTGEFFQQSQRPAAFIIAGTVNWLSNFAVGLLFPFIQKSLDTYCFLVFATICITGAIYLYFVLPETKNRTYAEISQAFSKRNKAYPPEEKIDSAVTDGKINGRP

`CCc1oc2ccccc2c1C(=O)c1cc(Br)c(O)c(Br)c1` [Benzbromarone]: the “effect in SLC2A9 membrane potential dye assay vs mock cells” value at SLC2A9 was “unspecific SLC2A9-independent effect”.

Take `Nc1ncnc2c1nc(NCc1ccc(-c3ccccc3)cc1)n2[C@@H]1O[C@H](CO)[C@@H](O)[C@H]1O` [CNT2 inhibitor 1]: the “selectivity for SLC28A2 in the TRACT assay” value in the assay on SLC28A2 (CNT2) is “not selective”. For the same compound, the “inhibition of SLC29A1” value on ENT1 (SLC29A1) was “also inhibited SLC29A1”.

As for `Cc1cccc(COc2ccccc2CN(CC[C@H](N)C(=O)O)Cc2ccccc2OCc2cccc(C)c2)c1` [V-9302], the “effect in SLC1A5 asparagine uptake assay” value at SLC1A5 is “no effect”.

For `O=C1CN(/N=C/c2ccc([N+](=O)[O-])o2)C(=O)N1` [nitrofurantoin], the S_SLCs in the assay with all SLCs is on record as 0. The S_other in assay [1] is 0. The “primary_SLC_act (MPC2)” value in the assay on MPC2 is reported as 5.48.

In the assay on all SLCs, `CCCOc1ccccc1-c1nc2nn[nH]c2c(=O)[nH]1` [zaprinast] had a S_SLCs of 0. For the same compound, in assay [1], the S_other worked out at 1.11. The “primary_SLC_act (MPC2)” value in the assay on MPC2 was 6.52. For the same compound, the “other_targets_act (PDE5A)” value in the assay with PDE5A is 5.95. The “other_targets_act (GPR35)” value in the assay on GPR35 is reported as 5.71. Further, the “other_targets_act (PDE1C)” value in the assay with PDE1C is listed as 4.89. In the assay on PDE10A, the “other_targets_act (PDE10A)” value was 4.66.
